Laboratory results reported in patent US20260250257A1, “ANTIBACTERIAL AND SYNERGISTIC ACTIVE COMPOUND AND USE THEREOF” (EAST CHINA UNIVERSITY OF SCIENCE AND TECHNOLOGY, priority 2023, published 2026).
Converted amounts (≈) assume the structure as drawn.

How the values were obtained:
Format in all cases: cell-based
[1] = tested on: ATCC9027 strain (Pseudomonas aeruginosa); test: Checkerboard antibacterial synergistic activity test with polymyxin E (FIC); design: key: FIC≤0.5 synergy; 0.5–1 additive; 1–2 indifferent; ≥2 antagonism; settings: combined with polymyxin E
Method in brief: (§1)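 Checkerboard in MH broth: colistin dilutions 16→0.015 μg/ml × test drug 256→4 μg/ml (concentrations before adding inoculum); drug mix plus bacteria, 37° C., 16 h. FIC cut-offs: ≤0.5 synergy; 0.5–1 additive; 1–2 indifferent; ≥2 antagonism.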

[2] = tested on: ATCC19606 strain (Acinetobacter baumannii); test: as above; design: key: FIC≤0.5 synergy; 0.5–1 additive; 1–2 indifferent; ≥2 antagonism; settings: combined with polymyxin E
Method in brief: as §1

[3] = tested on: ATCC25922 strain (Escherichia coli); test: as above; design: key: FIC≤0.5 synergy; 0.5–1 additive; 1–2 indifferent; ≥2 antagonism; settings: combined with polymyxin E
Method in brief: as §1

[4] = tested on: ATCC13883 strain (Klebsiella pneumoniae); test: as above; design: key: FIC≤0.5 synergy; 0.5–1 additive; 1–2 indifferent; ≥2 antagonism; settings: combined with polymyxin E
Method in brief: as §1

[5] = tested on: ATCC9027 strain (Pseudomonas aeruginosa); test: Broth microdilution, antibacterial activity of the compound used alone
Source text: (§2) The broth microdilution method was used to test the antibacterial effects of the compounds of the present invention against various Gram-negative bacterial strains when used alone.

[6] = tested on: ATCC19606 strain (Acinetobacter baumannii); test: as above
Source text: as §2

[7] = tested on: ATCC25922 strain (Escherichia coli); test: as above
Source text: as §2

[8] = tested on: ATCC13883 strain (Klebsiella pneumoniae); test: as above
Source text: as §2

**Q.** With NC(N)=Nc1nc(-c2c(Br)cc(Br)cc2Br)c(I)o1 [Compound I-53] as the compound, how does the “Synergistic activity (FIC value) ATCC9027” value [1] read?
**A.** Its value is 0.63.

**Q.** What about the “Synergistic activity (FIC value) ATCC19606” value [2] of the same compound?
**A.** Its value is 0.28.

**Q.** What about the “Synergistic activity (FIC value) ATCC25922” value [3] of the same compound?
**A.** The value was 0.5.

**Q.** What about the “Synergistic activity (FIC value) ATCC13883” value [4] of the same compound?
**A.** Its value is 0.25.

**Q.** What about the “Antibacterial activity of the compound of Formula I, ATCC9027” value (“Antibacterial activity … ATCC9027” below) [5] of the same compound?
**A.** Its value is 256 µg/mL.

**Q.** And the “Antibacterial activity of the compound of Formula I, ATCC19606” value (“Antibacterial activity … ATCC19606” below) [6]?
**A.** Its value is 256 µg/mL.

**Q.** What about the “Antibacterial activity of the compound of Formula I, ATCC25922” value (“Antibacterial activity … ATCC25922” for short) [7] of the same compound?
**A.** Its value is 256 µg/mL.

**Q.** What about the “Antibacterial activity of the compound of Formula I, ATCC13883” value (from here on “Antibacterial activity … ATCC13883”) [8] of the same compound?
**A.** The value was 256 µg/mL.

**Q.** NC(N)=Nc1nc(-c2c(I)cc(I)cc2I)cs1 [Compound I-54] was tested. Which “Synergistic activity (FIC value) ATCC9027” value [1] did it give?
**A.** The value was 0.62.

**Q.** What about the “Synergistic activity (FIC value) ATCC19606” value [2] of the same compound?
**A.** The value was 0.15.

**Q.** And the “Synergistic activity (FIC value) ATCC25922” value [3]?
**A.** Its value is 0.39.

**Q.** What about the “Synergistic activity (FIC value) ATCC13883” value [4] of the same compound?
**A.** The value was 0.33.

**Q.** And the “Antibacterial activity … ATCC9027” value [5]?
**A.** Its value is 256 µg/mL.

**Q.** What about the “Antibacterial activity … ATCC19606” value [6] of the same compound?
**A.** The value was 256 µg/mL.

**Q.** And the “Antibacterial activity … ATCC25922” value [7]?
**A.** The value was 256 µg/mL.

**Q.** And the “Antibacterial activity … ATCC13883” value [8]?
**A.** The value was 256 µg/mL.

**Q.** NC(N)=Nc1nc(-c2cccc3ccccc23)cs1 [Compound I-55] was tested. Which “Synergistic activity (FIC value) ATCC9027” value [1] did it give?
**A.** The value was 0.53.

**Q.** What about the “Synergistic activity (FIC value) ATCC19606” value [2] of the same compound?
**A.** Its value is 0.13.

**Q.** And the “Synergistic activity (FIC value) ATCC25922” value [3]?
**A.** Its value is 0.38.

**Q.** What about the “Synergistic activity (FIC value) ATCC13883” value [4] of the same compound?
**A.** Its value is 0.31.

**Q.** What about the “Antibacterial activity … ATCC9027” value [5] of the same compound?
**A.** Its value is 256 µg/mL.

**Q.** What about the “Antibacterial activity … ATCC19606” value [6] of the same compound?
**A.** The value was 256 µg/mL.

**Q.** And the “Antibacterial activity … ATCC25922” value [7]?
**A.** Its value is 256 µg/mL.

**Q.** And the “Antibacterial activity … ATCC13883” value [8]?
**A.** The value was 256 µg/mL.

**Q.** How did the “Synergistic activity (FIC value) ATCC9027” value [1] turn out when NC(N)=Nc1nc(-c2ccc3ccccc3c2)cs1 [Compound I-56] was run?
**A.** The value was 1.25.

**Q.** And the “Synergistic activity (FIC value) ATCC19606” value [2]?
**A.** The value was 1.25.

**Q.** And the “Synergistic activity (FIC value) ATCC25922” value [3]?
**A.** The value was 0.5.

**Q.** What about the “Synergistic activity (FIC value) ATCC13883” value [4] of the same compound?
**A.** Its value is 1.25.

**Q.** And the MIC ([5]; read-out: Antibacterial activity of the compound of Formula I, ATCC9027)?
**A.** Its MIC is 256 µg/mL (≈ 954 µM).

**Q.** And the MIC ([6]; read-out: Antibacterial activity of the compound of Formula I, ATCC19606)?
**A.** Its MIC is 256 µg/mL (≈ 954 µM).

**Q.** What about the MIC ([7]; read-out: Antibacterial activity of the compound of Formula I, ATCC25922) of the same compound?
**A.** The MIC was 256 µg/mL (≈ 954 µM).

**Q.** What about the MIC ([8]; read-out: Antibacterial activity of the compound of Formula I, ATCC13883) of the same compound?
**A.** Its MIC is 256 µg/mL (≈ 954 µM).

**Q.** Cc1cccc2cccc(-c3csc(N=C(N)N)n3)c12 [Compound I-57] was tested. Which “Synergistic activity (FIC value) ATCC9027” value [1] did it give?
**A.** The value was 0.63.

**Q.** And the “Synergistic activity (FIC value) ATCC19606” value [2]?
**A.** The value was 0.3.

**Q.** And the “Synergistic activity (FIC value) ATCC25922” value [3]?
**A.** The value was 0.5.

**Q.** And the “Synergistic activity (FIC value) ATCC13883” value [4]?
**A.** Its value is 0.25.

**Q.** What about the “Antibacterial activity … ATCC9027” value [5] of the same compound?
**A.** The value was 256 µg/mL.

**Q.** What about the “Antibacterial activity … ATCC19606” value [6] of the same compound?
**A.** The value was 256 µg/mL.

**Q.** And the “Antibacterial activity … ATCC25922” value [7]?
**A.** Its value is 256 µg/mL.

**Q.** What about the “Antibacterial activity … ATCC13883” value [8] of the same compound?
**A.** Its value is 256 µg/mL.

**Q.** How did the “Synergistic activity (FIC value) ATCC9027” value [1] turn out when Cc1ccc2cccc(-c3nc(N=C(N)N)oc3C)c2c1 [Compound I-58] was run?
**A.** Its value is 0.63.

**Q.** What about the “Synergistic activity (FIC value) ATCC19606” value [2] of the same compound?
**A.** Its value is 0.28.

**Q.** What about the “Synergistic activity (FIC value) ATCC25922” value [3] of the same compound?
**A.** The value was 0.5.

**Q.** What about the “Synergistic activity (FIC value) ATCC13883” value [4] of the same compound?
**A.** Its value is 0.25.

**Q.** And the “Antibacterial activity … ATCC9027” value [5]?
**A.** Its value is 256 µg/mL.

**Q.** And the “Antibacterial activity … ATCC19606” value [6]?
**A.** Its value is 256 µg/mL.

**Q.** And the “Antibacterial activity … ATCC25922” value [7]?
**A.** The value was 256 µg/mL.

**Q.** And the “Antibacterial activity … ATCC13883” value [8]?
**A.** Its value is 256 µg/mL.

**Q.** For Cc1ccc2c(-c3coc(N=C(N)N)n3)cccc2c1 [Compound I-59], which “Synergistic activity (FIC value) ATCC9027” value [1] is on record?
**A.** The value was 0.62.

**Q.** And the “Synergistic activity (FIC value) ATCC19606” value [2]?
**A.** The value was 0.15.

**Q.** What about the “Synergistic activity (FIC value) ATCC25922” value [3] of the same compound?
**A.** The value was 0.39.

**Q.** What about the “Synergistic activity (FIC value) ATCC13883” value [4] of the same compound?
**A.** The value was 0.33.

**Q.** And the “Antibacterial activity … ATCC9027” value [5]?
**A.** Its value is 256 µg/mL.

**Q.** And the “Antibacterial activity … ATCC19606” value [6]?
**A.** Its value is 256 µg/mL.

**Q.** What about the “Antibacterial activity … ATCC25922” value [7] of the same compound?
**A.** Its value is 256 µg/mL.

**Q.** What about the “Antibacterial activity … ATCC13883” value [8] of the same compound?
**A.** Its value is 256 µg/mL.

**Q.** Which “Synergistic activity (FIC value) ATCC9027” value [1] does the source give for CCc1[nH]c(N=C(N)N)nc1-c1cccc2c(C)cccc12 [Compound I-60] here?
**A.** The value was 0.31.

**Q.** And the “Synergistic activity (FIC value) ATCC19606” value [2]?
**A.** Its value is 0.12.

**Q.** And the “Synergistic activity (FIC value) ATCC25922” value [3]?
**A.** Its value is 0.38.

**Q.** And the “Synergistic activity (FIC value) ATCC13883” value [4]?
**A.** The value was 0.31.

**Q.** And the “Antibacterial activity … ATCC9027” value [5]?
**A.** The value was 256 µg/mL.

**Q.** What about the “Antibacterial activity … ATCC19606” value [6] of the same compound?
**A.** Its value is 256 µg/mL.

**Q.** And the “Antibacterial activity … ATCC25922” value [7]?
**A.** The value was 256 µg/mL.

**Q.** What about the “Antibacterial activity … ATCC13883” value [8] of the same compound?
**A.** The value was 256 µg/mL.

**Q.** How did the “Synergistic activity (FIC value) ATCC9027” value [1] turn out when Cc1cc(C)c2c(-c3csc(N=C(N)N)n3)cccc2c1 [Compound I-61] was run?
**A.** The value was 0.56.

**Q.** What about the “Synergistic activity (FIC value) ATCC19606” value [2] of the same compound?
**A.** Its value is 0.75.

**Q.** What about the “Synergistic activity (FIC value) ATCC25922” value [3] of the same compound?
**A.** Its value is 0.5.

**Q.** And the “Synergistic activity (FIC value) ATCC13883” value [4]?
**A.** The value was 0.63.

**Q.** And the “Antibacterial activity … ATCC9027” value [5]?
**A.** The value was 256 µg/mL.

**Q.** What about the “Antibacterial activity … ATCC19606” value [6] of the same compound?
**A.** Its value is 256 µg/mL.

**Q.** And the “Antibacterial activity … ATCC25922” value [7]?
**A.** Its value is 256 µg/mL.

**Q.** What about the “Antibacterial activity … ATCC13883” value [8] of the same compound?
**A.** The value was 256 µg/mL.
